Data set [1] in a line: Thermodynamic solubility in phosphate buffer at pH 7.4 at 2 mg incubated under shaking condition for 6 hrs followed by rechecking and readjusting pH to 7.4 and further incubated for 18 hrs by HPLC/UV detection method. It counts as physicochemical. The following applies: read-out: Therm_solubility.
Data set [2] has as its target T1, Protein mono-ADP-ribosyltransferase PARP8 (Homo sapiens, UniProt Q8N3A8).
T1 sequence (Q8N3A8 whole entry): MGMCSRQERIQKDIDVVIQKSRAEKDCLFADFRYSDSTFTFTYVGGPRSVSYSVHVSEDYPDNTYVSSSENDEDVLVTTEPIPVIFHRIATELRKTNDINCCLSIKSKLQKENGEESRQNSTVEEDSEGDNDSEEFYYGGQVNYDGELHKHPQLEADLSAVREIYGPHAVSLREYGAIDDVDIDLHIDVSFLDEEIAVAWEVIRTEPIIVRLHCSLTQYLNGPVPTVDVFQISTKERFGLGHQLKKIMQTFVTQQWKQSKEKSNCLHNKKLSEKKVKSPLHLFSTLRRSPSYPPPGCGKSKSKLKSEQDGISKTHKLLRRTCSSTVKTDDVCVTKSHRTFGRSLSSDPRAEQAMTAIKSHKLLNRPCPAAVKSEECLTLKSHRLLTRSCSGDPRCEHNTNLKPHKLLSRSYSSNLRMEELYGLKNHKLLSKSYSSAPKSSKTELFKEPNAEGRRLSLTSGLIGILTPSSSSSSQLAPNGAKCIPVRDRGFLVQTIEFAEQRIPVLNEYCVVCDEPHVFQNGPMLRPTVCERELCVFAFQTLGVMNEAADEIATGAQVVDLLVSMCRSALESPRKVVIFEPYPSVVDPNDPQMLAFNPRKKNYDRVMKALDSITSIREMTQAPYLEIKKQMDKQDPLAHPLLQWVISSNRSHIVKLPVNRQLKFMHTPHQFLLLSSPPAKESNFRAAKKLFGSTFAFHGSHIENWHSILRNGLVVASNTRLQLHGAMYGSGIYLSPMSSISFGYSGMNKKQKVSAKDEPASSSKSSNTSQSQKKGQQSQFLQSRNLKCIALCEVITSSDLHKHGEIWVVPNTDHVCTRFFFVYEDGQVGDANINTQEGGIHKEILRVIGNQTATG
The experiment in a line: Inhibition of human recombinant PARP8 by chemiluminescence method.

Data set [3] has as its target T2, Protein mono-ADP-ribosyltransferase PARP10 (Homo sapiens, UniProt Q53GL7).
T2 sequence (Q53GL7 whole entry): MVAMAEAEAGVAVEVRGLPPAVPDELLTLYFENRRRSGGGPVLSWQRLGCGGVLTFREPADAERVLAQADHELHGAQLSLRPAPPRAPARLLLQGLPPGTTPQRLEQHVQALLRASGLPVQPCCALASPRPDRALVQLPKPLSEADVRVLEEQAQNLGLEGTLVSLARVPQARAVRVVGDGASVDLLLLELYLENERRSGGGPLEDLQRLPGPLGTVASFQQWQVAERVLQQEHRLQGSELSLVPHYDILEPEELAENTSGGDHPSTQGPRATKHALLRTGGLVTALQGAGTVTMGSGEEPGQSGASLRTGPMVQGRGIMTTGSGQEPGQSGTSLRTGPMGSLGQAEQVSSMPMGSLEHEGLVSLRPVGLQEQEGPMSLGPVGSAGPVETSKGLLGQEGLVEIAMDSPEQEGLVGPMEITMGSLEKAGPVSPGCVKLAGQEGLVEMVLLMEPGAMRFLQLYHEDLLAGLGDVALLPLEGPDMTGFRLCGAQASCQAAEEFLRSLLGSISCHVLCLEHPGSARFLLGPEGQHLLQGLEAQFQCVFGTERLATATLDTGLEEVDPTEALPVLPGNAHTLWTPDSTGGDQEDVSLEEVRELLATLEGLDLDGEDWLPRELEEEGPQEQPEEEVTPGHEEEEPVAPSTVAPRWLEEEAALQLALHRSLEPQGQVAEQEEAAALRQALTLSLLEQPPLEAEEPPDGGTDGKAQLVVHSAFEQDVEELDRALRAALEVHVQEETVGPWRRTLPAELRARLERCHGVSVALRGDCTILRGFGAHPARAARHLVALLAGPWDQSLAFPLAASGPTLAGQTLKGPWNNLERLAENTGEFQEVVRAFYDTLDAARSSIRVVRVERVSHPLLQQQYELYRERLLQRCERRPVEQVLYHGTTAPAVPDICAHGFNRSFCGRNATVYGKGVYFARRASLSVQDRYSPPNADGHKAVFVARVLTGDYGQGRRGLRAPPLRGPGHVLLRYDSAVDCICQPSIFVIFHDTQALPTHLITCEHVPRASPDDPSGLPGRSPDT
The data set is described as follows: Inhibition of human N-terminal FLAG-tagged/C-terminal Strep-tagged PARP10 (805 to 1025 residues) expressed in baculovirus infected Sf9 insect cells using biotinylated substrate by chemiluminescence method.

The target in data set [4] is T3, Protein mono-ADP-ribosyltransferase PARP12 (Homo sapiens, UniProt Q9H0J9).
T3 sequence (Q9H0J9 whole entry): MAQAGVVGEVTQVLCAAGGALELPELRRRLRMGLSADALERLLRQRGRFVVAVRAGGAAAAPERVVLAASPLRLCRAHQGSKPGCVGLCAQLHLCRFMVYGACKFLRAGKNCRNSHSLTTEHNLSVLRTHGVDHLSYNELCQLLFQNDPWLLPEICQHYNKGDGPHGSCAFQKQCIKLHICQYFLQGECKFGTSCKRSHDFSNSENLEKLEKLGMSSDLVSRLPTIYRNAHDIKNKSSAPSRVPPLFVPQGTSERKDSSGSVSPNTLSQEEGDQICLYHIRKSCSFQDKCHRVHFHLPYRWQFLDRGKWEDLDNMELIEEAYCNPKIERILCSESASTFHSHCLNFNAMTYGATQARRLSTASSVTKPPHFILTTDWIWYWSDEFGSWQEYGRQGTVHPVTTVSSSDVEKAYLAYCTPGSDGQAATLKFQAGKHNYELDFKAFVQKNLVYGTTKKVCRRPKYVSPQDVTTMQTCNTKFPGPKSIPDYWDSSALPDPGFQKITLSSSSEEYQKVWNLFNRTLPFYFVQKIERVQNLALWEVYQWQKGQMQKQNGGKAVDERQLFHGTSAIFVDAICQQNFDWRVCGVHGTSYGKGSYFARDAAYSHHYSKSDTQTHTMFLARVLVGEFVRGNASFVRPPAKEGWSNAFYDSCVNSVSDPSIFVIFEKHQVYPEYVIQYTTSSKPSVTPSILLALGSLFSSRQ
The data set is described as follows: Inhibition of human N-terminal His/GST-tagged PARP12 (500 to 701 residues) expressed in baculovirus infected Sf9 insect cells using biotinylated substrate by chemiluminescence method.

Data set [5] in a line: Time at which free-drug concentration exceeds in vitro cellular EC50 for inhibition of tankyrase 1/2 in human DLD1 cells assessed as increase in axin2 accumulation in mouse xenografted with human DLD1 at 30 mg/kg, po administered via gavage. It counts as organism-based. As to conditions: in vivo. A general note: Xenograft models place foreign cells or tissue in a host animal.

Data set [6] is described as follows: Time at which free-drug concentration exceeds in vitro cellular EC50 for inhibition of tankyrase 1/2 in human DLD1 cells assessed as increase in axin2 accumulation in mouse xenografted with human DLD1 at 90 mg/kg, po administered via gavage. It counts as organism-based. The following applies: in vivo.

Converted amounts (≈) assume the structure as drawn. Where only a bound is given, the exact number is not on record here.

The term IC50 denotes the midpoint of a concentration-inhibition curve. Take `CC(C)(O)c1ccc(-c2nc3c(F)cc(F)cc3c(=O)[nH]2)cc1`: the solubility thermodynamic at 24 h in data set [1] amounted to 31 µg/mL (≈ 98 µM). The IC50 in data set [2], in data set [3] and in data set [4] was more than 10 µM in each case. Further, the “T>fEC50” value in data set [5] and in data set [6] was “>= 12 hr” throughout.

The values above are taken from ChEMBL document CHEMBL4321794, “Discovery and Optimization of 2-Arylquinazolin-4-ones into a Potent and Selective Tankyrase Inhibitor Modulating Wnt Pathway Activity” (J Med Chem, 2019).
